According to US9296736B2 (priority 2010, dated 2016):
pIC50: −log10 of the molar value.

Target: interaction between GST-hMDM2 (1-188) and biotinylated-p53 (1-83) (Homo sapiens (Human), UniProt Q00987)
Test: biochemical

Sequence of interaction between GST-hMDM2 (1-188) and biotinylated-p53 (1-83) (Q00987 1-188): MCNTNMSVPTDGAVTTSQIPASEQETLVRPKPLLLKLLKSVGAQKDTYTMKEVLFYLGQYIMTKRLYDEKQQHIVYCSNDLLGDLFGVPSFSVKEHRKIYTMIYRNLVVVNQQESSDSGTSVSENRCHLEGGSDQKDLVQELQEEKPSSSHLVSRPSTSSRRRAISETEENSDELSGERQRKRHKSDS

CC[C@@H](CNS(=O)(=O)c1cccnc1)N1C(=O)[C@@](C)(CC(=O)O)C[C@H](c2cccc(Cl)c2)[C@H]1c1ccc(Cl)cc1 [Example 196, 2-((3R,5R,6S)-5-(3-chlorophenyl)-6-(4-chlorophenyl)-3-methyl-2-oxo-1-((S)-1-(pyridine-3-sulfonamido)butan-2-yl)piperidin-3-yl)acetic acid]
pIC50: > 9.00
